{"source": "paper PMC12250965", "about": "“Design and Synthesis of Sulfonium and Selenonium Derivatives Bearing 3′,5′-O-Benzylidene Acetal Side Chain Structure as Potent α-Glucosidase Inhibitors” (Molecules, 2025)", "key": {"sucrose-loaded mice": {"test_system": "sucrose-loaded mice", "assay": "Sucrose loading test (hypoglycemic effect)", "assay_type": "in vivo, ICR mice", "conditions": "sucrose loading […] p.o.", "experimental": "Research has shown a strong association between the 2 h postprandial blood glucose level and the risk of cardiovascular events, diabetic microvascular complications such as retinopathy, and the progression of macrovascular diseases. […] Considering this underlying pathological process, α-glucosidase inhibitors, which efficiently regulate postprandial glucose fluctuations, hold significant therapeutic promise for alleviating diabetes-related complications. […] Subsequently, doses were reduced to 1.0 mg/kg.\n(§1) The animal experimental protocols in this study were approved by the Experimental Animal Center of Shanghai Institute of Materia Medica (Shanghai, China). Male ICR (Institute of Cancer Research) mice (29−33 g) after an overnight fast were used for acute maltose and sucrose loading tests. In the maltose loading test, maltose (2.0 mpk of body weight) and the inhibitors and voglibose were dissolved in distillation−distillation water and administered to the mice via a stomach tube. A control group was loaded with distillation−distillation water. In the sucrose loading test, sucrose (2.5 g/kg of body weight) and the inhibitor miglitol were dissolved in distillation−distillation water and administered to the mice via a stomach tube. A control group was loaded with distillation−distillation water. Blood samples for glucose measurements were obtained from the tail vein at 0, 15, 30, 60, and 120 min after maltose and sucrose loading. The blood glucose levels were measured by a portable kit, StatStrip Xpress (Nova Biomedical Co., Ltd., Waltham, MA, USA). The AUC over was calculated by the trapezoidal method."}, "rat intestinal sucrase [1]": {"target": "T1, rat intestinal sucrase (Rattus norvegicus, UniProt P23739)", "T1 construct": "rat small intestinal brush border membrane vesicles were first prepared; from tissue; host or cells: rat small intestine, brush border membrane vesicles", "T1 sequence (P23739 whole entry)": "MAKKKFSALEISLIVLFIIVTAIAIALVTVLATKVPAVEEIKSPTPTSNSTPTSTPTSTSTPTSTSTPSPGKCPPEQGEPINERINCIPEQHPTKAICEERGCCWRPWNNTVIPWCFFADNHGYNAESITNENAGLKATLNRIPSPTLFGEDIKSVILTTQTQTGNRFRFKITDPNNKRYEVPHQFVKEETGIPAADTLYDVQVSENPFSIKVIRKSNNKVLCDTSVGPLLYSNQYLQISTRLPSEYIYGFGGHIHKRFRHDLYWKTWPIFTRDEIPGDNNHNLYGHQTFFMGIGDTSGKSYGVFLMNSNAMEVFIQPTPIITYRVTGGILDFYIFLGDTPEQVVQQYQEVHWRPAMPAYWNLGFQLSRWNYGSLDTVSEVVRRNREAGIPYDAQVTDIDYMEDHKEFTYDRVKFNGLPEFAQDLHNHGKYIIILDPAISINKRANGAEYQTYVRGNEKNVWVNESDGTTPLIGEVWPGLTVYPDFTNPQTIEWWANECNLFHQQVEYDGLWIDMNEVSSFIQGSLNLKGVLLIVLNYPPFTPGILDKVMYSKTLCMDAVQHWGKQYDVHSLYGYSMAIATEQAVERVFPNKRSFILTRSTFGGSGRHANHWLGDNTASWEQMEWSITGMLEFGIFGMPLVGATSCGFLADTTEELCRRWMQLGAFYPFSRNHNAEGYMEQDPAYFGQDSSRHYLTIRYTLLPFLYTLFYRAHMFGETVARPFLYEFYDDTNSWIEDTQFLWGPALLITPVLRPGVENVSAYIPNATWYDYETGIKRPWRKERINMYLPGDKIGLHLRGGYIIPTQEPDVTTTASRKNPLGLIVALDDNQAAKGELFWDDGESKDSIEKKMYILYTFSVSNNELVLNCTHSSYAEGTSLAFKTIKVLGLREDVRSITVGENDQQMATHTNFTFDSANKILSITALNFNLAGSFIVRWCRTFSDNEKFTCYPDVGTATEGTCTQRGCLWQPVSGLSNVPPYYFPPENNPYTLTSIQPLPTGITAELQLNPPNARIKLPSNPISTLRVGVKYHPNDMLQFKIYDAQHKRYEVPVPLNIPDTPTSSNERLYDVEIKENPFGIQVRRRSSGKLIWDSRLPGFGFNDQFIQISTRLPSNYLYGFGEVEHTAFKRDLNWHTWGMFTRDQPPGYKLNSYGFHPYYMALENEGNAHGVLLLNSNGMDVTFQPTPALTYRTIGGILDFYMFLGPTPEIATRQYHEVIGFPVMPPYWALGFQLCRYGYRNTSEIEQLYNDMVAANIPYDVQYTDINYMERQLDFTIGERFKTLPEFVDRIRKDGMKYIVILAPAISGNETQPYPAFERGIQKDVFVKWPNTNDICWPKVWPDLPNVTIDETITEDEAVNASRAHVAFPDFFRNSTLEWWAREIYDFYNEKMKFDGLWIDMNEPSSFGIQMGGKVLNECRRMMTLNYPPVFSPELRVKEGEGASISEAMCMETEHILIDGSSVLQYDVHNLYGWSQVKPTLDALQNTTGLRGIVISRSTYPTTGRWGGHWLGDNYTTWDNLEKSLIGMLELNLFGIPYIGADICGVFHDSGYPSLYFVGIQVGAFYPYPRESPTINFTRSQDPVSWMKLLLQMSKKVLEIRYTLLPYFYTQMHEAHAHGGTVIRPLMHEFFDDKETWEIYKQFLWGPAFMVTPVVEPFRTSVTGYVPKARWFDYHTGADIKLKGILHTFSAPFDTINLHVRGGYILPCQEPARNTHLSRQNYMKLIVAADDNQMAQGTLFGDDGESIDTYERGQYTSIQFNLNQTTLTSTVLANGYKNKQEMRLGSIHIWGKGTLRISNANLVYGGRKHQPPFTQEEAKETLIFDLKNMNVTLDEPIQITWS", "assay": "In vitro α-glucosidase inhibition assay, rat intestinal sucrase", "assay_type": "biochemical", "conditions": "rat small intestinal brush border membrane vesicles; sucrose substrate; mean ± SD (n = 3); read-out: IC50 against sucrase"}, "rat intestinal sucrase [2]": {"target": "T1, rat intestinal sucrase", "conditions": "literature value ^[a]; read-out: IC50 against sucrase (converted); cited from earlier work"}, "rat intestinal maltase [3]": {"target": "rat intestinal maltase", "assay": "In vitro α-glucosidase inhibition assay, rat intestinal maltase", "assay_type": "biochemical", "conditions": "rat small intestinal brush border membrane vesicles; maltose substrate; mean ± SD (n = 3); read-out: IC50 against maltase"}, "rat intestinal maltase [4]": {"target": "rat intestinal maltase", "conditions": "literature value ^[a]; read-out: IC50 against maltase (converted); cited from earlier work"}, "maltose-loaded mice": {"test_system": "maltose-loaded mice", "assay": "Maltose loading test (hypoglycemic effect)", "assay_type": "in vivo, ICR mice", "conditions": "maltose loading 2.0 g/kg, 1.0 mpk, 1 mg/kg", "experimental": "A maltose loading test on compounds 10, 20c, neoponkoranol, and positive control (voglibose) was conducted to further evaluate their in vivo hypoglycemic effects against maltase.\nas §1, with “In the maltose loading test, maltose (2.0 mpk of body weight) and the inhibitors and voglibose were dissolved in distillation−distillation water and administered to the mice via a stomach tube.” left out"}}, "note": "Read-outs that look alike come from different tables or passages of the source."}
{"smiles": "OC[C@@H]1[C@@H](O)[C@H](O)C[S@@+]1C[C@@H](O)[C@@H](O)[C@H](O)[C@@H](O)CO", "note": "[neoponkoranol]", "values": [{"measurement": "Declined Rate of Blood Glucose Levels, 15 min", "setting": "sucrose-loaded mice; 1.0 mpk", "result": 33.5, "unit": "%"}, {"measurement": "Declined Rate of Blood Glucose Levels, 30 min", "setting": "sucrose-loaded mice; 1.0 mpk", "result": 36.4, "unit": "%"}, {"measurement": "Declined Rate of Blood Glucose Levels, 60 min", "setting": "sucrose-loaded mice; 1.0 mpk", "result": 27.1, "unit": "%"}, {"measurement": "Declined Rate of AUC", "setting": "sucrose-loaded mice; 1.0 mpk", "result": 27.1, "unit": "%"}, {"measurement": "Declined Rate of Blood Glucose Levels, 15 min", "setting": "sucrose-loaded mice; 10.0 mpk", "result": 42.8, "unit": "%"}, {"measurement": "Declined Rate of Blood Glucose Levels, 30 min", "setting": "sucrose-loaded mice; 10.0 mpk", "result": 49.5, "unit": "%"}, {"measurement": "Declined Rate of Blood Glucose Levels, 60 min", "setting": "sucrose-loaded mice; 10.0 mpk", "result": 43.5, "unit": "%"}, {"measurement": "Declined Rate of AUC", "setting": "sucrose-loaded mice; 10.0 mpk", "result": 39.4, "unit": "%"}, {"measurement": "IC50", "setting": "rat intestinal sucrase [1]", "result": "2.8 ± 0.5", "unit": "µM"}, {"measurement": "IC50", "setting": "rat intestinal sucrase [2]", "result": 2.3, "unit": "µM"}, {"measurement": "IC50", "setting": "rat intestinal maltase [3]", "result": "7.3 ± 1.5", "unit": "µM"}, {"measurement": "IC50", "setting": "rat intestinal maltase [4]", "result": 6.9, "unit": "µM"}, {"measurement": "Declined Rate of Blood Glucose Levels, 15 min", "setting": "maltose-loaded mice; 15 min", "result": 42.3, "unit": "%"}, {"measurement": "Declined Rate of Blood Glucose Levels, 30 min", "setting": "maltose-loaded mice; 30 min", "result": 33.9, "unit": "%"}, {"measurement": "Declined Rate of Blood Glucose Levels, 60 min", "setting": "maltose-loaded mice; 60 min", "result": 19.4, "unit": "%"}, {"measurement": "Declined Rate of AUC", "setting": "maltose-loaded mice; AUC", "result": 21.5, "unit": "%"}]}
